Source: patent US12653775B2, “Canine topical formulations and methods thereof” (priority 2023, dated 2026)

Key:
[1] = test system: Methicillin-resistant Staphylococcus pseudintermedius (MRSP) clinical isolate biofilm; experiment: Minimum biofilm eradication concentration (MBEC) assay, Calgary Biofilm Device; format: cell-based
Description: (§1) Minimum biofilm eradication concentration (MBEC) values provide estimates on the concentration of an antimicrobial product required to kill bacterial biofilm.
(§2) The CBD plate was incubated with
(§3) All test articles were tested in triplicate.

[2] = test system: P. aeruginosa PAE 1103 (multi-drug resistant clinical isolate) biofilm; format: cell-based, Pseudomonas aeruginosa; conditions: MDR P. aeruginosa; TP1 undiluted, micronized silver at lowest concentration 0.05% v/v
Description: as §1, §2, §3

[3] = test system: biofilms of S. pseudintermedius; experiment: In vitro biofilm eradication study; format: cell-based
[4] = test system: biofilms of Pseudomonas aeruginosa; experiment: In vitro biofilm eradication study; format: cell-based

Substance | MBEC ([1]; MRSP clinical isolate biofilm, treated 24 hours at 35° C.) | biofilm eradication (in words) [2] | biofilm eradication (in words) ([1]; MRSP, TP1 undiluted, micronized silver at lowest concentration 0.05% v/v) | biofilm eradication (in words) [3] | biofilm eradication (in words) [4]
Gentamicin [reference compound] | 0.25 µg/mL | – | – | – | –
Silver ions | – | effective in eradicating the biofilms | effective in eradicating the biofilms | effective in eradicating the biofilms | effective in eradicating the biofilms
